According to US20180214395A1 (priority 2017, published 2018):

Experiment: SAD study: cardiac safety (ECG, telemetry, QTcF prolongation)

## CCC(=O)C(C[C@H](C)N(C)C)(c1ccccc1)c1ccccc1 [d-methadone]
100 mg, subject 9056, 0.5 h
  QTcF Reading 1: 415 ms
  QTcF Reading 2: 424 ms
  QTcF Reading 3: 436 ms
100 mg, subject 9056, 2 h
  QTcF Average: 439 ms
  QTcF Reading 1: 445 ms
  QTcF Reading 2: 426 ms
  QTcF Reading 3: 446 ms
100 mg, subject 9056, 3 h
  QTcF Average: 442 ms
  QTcF Reading 1: 453 ms
  QTcF Reading 2: 443 ms
  QTcF Reading 3: 429 ms
100 mg, subject 9056, 5 h
  QTcF Average: 429 ms
  QTcF Reading 1: 419 ms
  QTcF Reading 2: 448 ms
  QTcF Reading 3: 419 ms
100 mg, subject 9056, 8 h
  QTcF Average: 446 ms
  QTcF Reading 1: 436 ms
  QTcF Reading 2: 457 ms
  QTcF Reading 3: 444 ms
100 mg, subject 9056, 24 h
  QTcF Average: 432 ms
  QTcF Reading 1: 432 ms
  QTcF Reading 2: 431 ms
  QTcF Reading 3: 434 ms
100 mg, subject 9056, 48 h
  QTcF Average: 422 ms
  QTcF Reading 1: 418 ms
  QTcF Reading 2: 433 ms
  QTcF Reading 3: 416 ms
150 mg (N = 6), 0.5 h
  Overall ECG result Abnormal, NCS: 1 (16.7) n (%)
  Overall ECG result Normal: 5 (83.3) n (%)
150 mg (N = 6), 1 h
  Overall ECG result Abnormal, NCS: 2 (33.3) n (%)
  Overall ECG result Normal: 4 (66.7) n (%)
150 mg (N = 6), 2 h
  Overall ECG result Abnormal, NCS: 2 (33.3) n (%)
  Overall ECG result Normal: 4 (66.7) n (%)
150 mg (N = 6), 3 h
  Overall ECG result Abnormal, NCS: 4 (66.7) n (%)
  Overall ECG result Normal: 2 (33.3) n (%)
150 mg (N = 6), 5 h
  Overall ECG result Abnormal, NCS: 2 (33.3) n (%)
  Overall ECG result Normal: 4 (66.7) n (%)
150 mg (N = 6), 8 h
  Overall ECG result Abnormal, NCS: 2 (33.3) n (%)
  Overall ECG result Normal: 4 (66.7) n (%)
150 mg (N = 6), 12 h
  Overall ECG result Abnormal, NCS: 2 (33.3) n (%)
  Overall ECG result Normal: 4 (66.7) n (%)
150 mg (N = 6), 24 h
  Overall ECG result Abnormal, NCS: 1 (16.7) n (%)
  Overall ECG result Normal: 5 (83.3) n (%)
150 mg (N = 6), 48 h
  Overall ECG result Abnormal, NCS: 1 (16.7) n (%)
  Overall ECG result Normal: 5 (83.3) n (%)
150 mg (N = 6), 72 h
  Overall ECG result Abnormal, NCS: 0 n (%)
  Overall ECG result Normal: 6 (100) n (%)
150 mg (N = 6), Visit 3
  Overall ECG result Abnormal, NCS: 0 n (%)
  Overall ECG result Normal: 6 (100) n (%)
150 mg, subject 9088, 3 h
  QTcF Average: 422 ms
  QTcF Reading 1: 410 ms
  QTcF Reading 2: 434 ms
  QTcF Reading 3: 423 ms
150 mg, subject 9088, 12 h
  QTcF Average: 430 ms
  QTcF Reading 1: 434 ms
  QTcF Reading 2: 427 ms
  QTcF Reading 3: 429 ms
150 mg, subject 9099, 3 h
  QTcF Average: 429 ms
  QTcF Reading 1: 420 ms
  QTcF Reading 2: 431 ms
  QTcF Reading 3: 435 ms
150 mg, subject 9099, 5 h
  QTcF Average: 436 ms
  QTcF Reading 1: 437 ms
  QTcF Reading 2: 440 ms
  QTcF Reading 3: 431 ms
200 mg (N = 1), 0.5 h
  Overall ECG result Abnormal, NCS: 1 (100) n (%)
  Overall ECG result Normal: 0 n (%)
200 mg (N = 1), 1 h
  Overall ECG result Abnormal, NCS: 1 (100) n (%)
  Overall ECG result Normal: 0 n (%)
200 mg (N = 1), 2 h
  Overall ECG result Abnormal, NCS: 1 (100) n (%)
  Overall ECG result Normal: 0 n (%)
200 mg (N = 1), 3 h
  Overall ECG result Abnormal, NCS: 1 (100) n (%)
  Overall ECG result Normal: 0 n (%)
200 mg (N = 1), 5 h
  Overall ECG result Abnormal, NCS: 1 (100) n (%)
  Overall ECG result Normal: 0 n (%)
200 mg (N = 1), 8 h
  Overall ECG result Abnormal, NCS: 0 n (%)
  Overall ECG result Normal: 1 (100) n (%)
200 mg (N = 1), 12 h
  Overall ECG result Abnormal, NCS: 0 n (%)
  Overall ECG result Normal: 1 (100) n (%)
200 mg (N = 1), 24 h
  Overall ECG result Abnormal, NCS: 1 (100) n (%)
  Overall ECG result Normal: 0 n (%)
200 mg (N = 1), 48 h
  Overall ECG result Abnormal, NCS: 0 n (%)
  Overall ECG result Normal: 1 (100) n (%)
200 mg (N = 1), 72 h
  Overall ECG result Abnormal, NCS: 0 n (%)
  Overall ECG result Normal: 1 (100) n (%)
200 mg (N = 1), Visit 3
  Overall ECG result Abnormal, NCS: 0 n (%)
  Overall ECG result Normal: 1 (100) n (%)
200 mg, subject 9078, 3 h
  QTcF Average: 426 ms
  QTcF Reading 1: 441 ms
  QTcF Reading 2: 422 ms
  QTcF Reading 3: 416 ms
SAD 5 mg, 1 h
  ECG abnormal result: QTcF prolongation: 1 (16.7) n (%)
SAD 5 mg, 2 h
  ECG abnormal result: QTcF prolongation: 2 (33.3) n (%)
SAD 5 mg, 3 h
  ECG abnormal result: QTcF prolongation: 1 (16.7) n (%)
SAD 5 mg, 5 h
  ECG abnormal result: QTcF prolongation: 2 (33.3) n (%)
SAD 5 mg, total
  ECG abnormal result: QTcF prolongation: 3 (50.0) n (%)
SAD 20 mg, total
  ECG abnormal result: QTcF prolongation: 0 n (%)
SAD 60 mg, total
  ECG abnormal result: QTcF prolongation: 0 n (%)
SAD 100 mg, 0.5 h
  ECG abnormal result: QTcF prolongation: 1 (16.7) n (%)
SAD 100 mg, 2 h
  ECG abnormal result: QTcF prolongation: 1 (16.7) n (%)
SAD 100 mg, 3 h
  ECG abnormal result: QTcF prolongation: 1 (16.7) n (%)
SAD 100 mg, 5 h
  ECG abnormal result: QTcF prolongation: 1 (16.7) n (%)
SAD 100 mg, 8 h
  ECG abnormal result: QTcF prolongation: 1 (16.7) n (%)
SAD 100 mg, 24 h
  ECG abnormal result: QTcF prolongation: 1 (16.7) n (%)
SAD 100 mg, 48 h
  ECG abnormal result: QTcF prolongation: 1 (16.7) n (%)
SAD 100 mg, total
  ECG abnormal result: QTcF prolongation: 1 (16.7) n (%)
SAD 150 mg, 3 h
  ECG abnormal result: QTcF prolongation: 2 (33.3) n (%)
SAD 150 mg, 5 h
  ECG abnormal result: QTcF prolongation: 1 (16.7) n (%)
SAD 150 mg, 12 h
  ECG abnormal result: QTcF prolongation: 1 (16.7) n (%)
SAD 150 mg, total
  ECG abnormal result: QTcF prolongation: 2 (33.3) n (%)
SAD 200 mg (N=1), 3 h
  ECG abnormal result: QTcF prolongation: 1 (100) n (%)
SAD 200 mg (N=1), total
  ECG abnormal result: QTcF prolongation: 1 (100) n (%)
SAD study
  Dose relation of QTcF prolongation: no dose-related effects were observed
SAD study, Subject 9056
  Maximum QTcF interval observed: 457 ms
